The results in this text go back to US7851626B2, “4,4,5,5, tetrasubstituted imidazolines” (Hoffmann-La Roche Inc., priority 2005, dated 2010).

The target in the assay is interaction between p53 and MDM2 proteins (Homo sapiens, UniProt Q00987). Briefly: HTRF assay of inhibition of the p53-MDM2 interaction (GST-MDM2 and biotinylated p53 peptide). It is filed as binding. Conditions: recombinant GST-tagged MDM2, biotinylated p53 peptide, 37° C. for 1 h. The procedure: The ability of the compounds to inhibit the interaction between p53 and MDM2 proteins was measured by an HTRF (homogeneous time-resolved fluorescence) assay in which recombinant GST-tagged MDM2 binds to a peptide that resembles the MDM2-interacting region of p53 (Lane et al.). Binding of GST-MDM2 protein and p53-peptide (biotinylated on its N-terminal end) is registered by the FRET (fluorescence resonance energy transfer) between Europium (Eu)-labeled anti-GST antibody and streptavidin-conjugated Allophycocyanin (APC).
interaction between p53 and MDM2 proteins, sequence (Q00987 whole entry): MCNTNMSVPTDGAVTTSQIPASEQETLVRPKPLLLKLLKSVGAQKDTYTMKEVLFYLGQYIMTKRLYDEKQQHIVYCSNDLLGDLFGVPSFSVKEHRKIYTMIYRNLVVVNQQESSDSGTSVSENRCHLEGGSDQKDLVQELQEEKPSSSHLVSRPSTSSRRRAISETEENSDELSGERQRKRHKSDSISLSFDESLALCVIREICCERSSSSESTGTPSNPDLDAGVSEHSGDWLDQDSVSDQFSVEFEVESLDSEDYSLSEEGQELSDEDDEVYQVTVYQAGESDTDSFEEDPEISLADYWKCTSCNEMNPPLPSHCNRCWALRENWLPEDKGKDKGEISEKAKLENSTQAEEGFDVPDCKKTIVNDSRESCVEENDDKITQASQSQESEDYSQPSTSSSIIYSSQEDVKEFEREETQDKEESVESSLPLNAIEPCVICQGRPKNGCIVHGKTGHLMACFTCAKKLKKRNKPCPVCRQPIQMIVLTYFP
Test is performed in black flat-bottom 384-well plates (Costar) in a total volume of 40 uL containing: 90 nM biotinylate peptide, 160 ng/mL GST-MDM2, 20 nM streptavidin-APC (PerkinElmerWallac), 2 nM Eu-labeled anti-GST-antibody (PerkinElmerWallac), 0.2% bovine serum albumin (BSA), 1 mM dithiothreitol (DTT) and 20 mM Tris-borate saline (TBS) buffer as follows: Add 10 uL of GST-MDM2 (640 ng/mL working solution) in reaction buffer to each well. […] Incubate at 37° C. for 1 h. […] If not specified, the reagents were purchased from Sigma Chemical Co.
In the case of `COc1ccc(C2=N[C@@](C)(c3ccc(Cl)cc3)[C@@H](c3ccc(Cl)cc3)N2C(=O)N2CCN(C(C)=O)CC2)c(OC(C)C)c1` (racemic) [Example 190, rac-1-{4-[(4S*,5R*)-4,5-Bis-(4-chloro-phenyl)-2-(2-isopropoxy-4-methoxy-phenyl)-4-methyl-4,5-dihydro-imidazole-1-carbonyl]-piperazin-1-yl}-ethanone], the IC50 was found to be 48 nM.

Turning to `CCOc1cc(S(=O)(=O)N2CCCC2)ccc1C1=N[C@@](C)(c2ccc(Cl)cc2)[C@@](C)(c2ccc(Cl)cc2)N1C(=O)N1CCN(CC(N)=O)CC1` [Example 35, 2-(4-{(4S,5R)-4,5-Bis-(4-chloro-phenyl)-2-[2-ethoxy-4-(pyrrolidine-1-sulfonyl)-phenyl]-4,5-dimethyl-4,5-dihydro-imidazole-1-carbonyl}-piperazin-1-yl)-acetamide], the IC50 was determined as 17 nM.

Take `CCOc1cc(C(C)(C)C)ccc1C1=N[C@@](C)(c2ccc(Cl)cc2)[C@@H](c2ccc(Cl)cc2)N1C(=O)N1CCN(C(C)=O)CC1` [Example 177, 1-{4-[(4S,5R)-2-(4-tert-Butyl-2-ethoxy-phenyl)-4,5-bis-(4-chloro-phenyl)-4-methyl-4,5-dihydro-imidazole-1-carbonyl]-piperazin-1-yl}-ethanone]: the IC50 came out at 107 nM.
